In patent US8536187B2 (Gilead Sciences, Inc., priority 2008, dated 2013):

Tests used:
[1] = CC50 assay (CellTiter-Glo) in Huh-7 HCV replicon cells; type: cell-based; details: human
Description: (§1) The anti-HCV activity of the pyrido[3,2-d]pyrimidine derivatives of this invention was tested in a human hepatoma Huh-7 cell line harboring a HCV replicon. The assay comprised the following steps: • Step 1: compound preparation and serial dilution: serial dilution is performed in 50% DMSO in a 384-well plate. A solution containing a compound at 100-fold concentration of the starting final serial dilution concentration was prepared in 50% DMSO and added to the pre-specified wells in column 1 of a polypropylene 384-well plate. The plate was then placed on a Precision 2000 Workstation to start the serial dilution. After the serial dilution, a volume of 2 μL of the solution was transferred from the 384-well plate to a 96-well cell culture plate containing 100 μL of cell media on a Biomek FX Workstation. The DMSO concentration in the final assay condition was 0.5% after cells are added to the plate and the total volume in each well is brought to 200 μL. • Step 2: to each well of the serial dilution plate prepared above, 100 μL of cell media containing 6000 suspended Huh-7 HCV replicon cells was added with a Multidrop workstation. The plates were incubated for 3 days at 37° C. with 5% CO2. • Step 3: detection: • a) for the EC50 assay, the media in a 96-well cell culture plate was aspirated with a Biotek EL405 plate-washer. A volume of 200 μL of a solution containing a 1:1 mixture of cell-lysis buffer (Promega, Luciferase Cell Culture Lysis 5× Reagent, cat. #E1531) and luciferase substrate solution (Promega, Luciferase Assay, cat.# E4550) was added to each well of the plate with Multidrop. The plate was incubated for 30 minutes at room temperature before the luminescence signal was measured with a TopCount plate-reader. • b) for the CC50 assay, a volume of 100 μL of pre-mixed CellTiter-Glo (Promega, cat.# G7572) solution is added directly to the cell culture in each well of the plate and the luminescence signal is measured with a TopCount plate-reader after 10 minutes of incubation at room temperature.

[2] = tested on: HCV replicon in human hepatoma Huh-7 cell line; assay: Anti-HCV replicon assay, EC50 (luciferase luminescence); type: cell-based; details: Hepatitis C virus, Huh-7, 72 h
Description: as §1

Row | SMILES | CC50 at 3 days ([1]; Table 1, 3 days incubation) [µM] | EC50 [2] [µM] | CC50 at 3 days ([1]; Table 2, 3 days incubation) [µM]
1 | NS(=O)(=O)c1cc(CNc2nc(NCC(F)(F)F)c3nc(-c4ccc(F)cc4)ccc3n2)ccc1F [Example 7, 2-Fluoro-5-{[6-(4-fluoro-phenyl)-4-(2,2,2-trifluoro-ethylamino)-pyrido[3,2-d]pyrimidin-2-ylamino]-methyl}-benzenesulfonamide] | 10 to 25 | < 0.1 | –
2 | CS(=O)(=O)c1cccc(CNc2nc(NC3(C(F)(F)F)CC3)c3nc(-c4ccc(F)cc4)ccc3n2)c1 [Example 86, N^2-(3-(methylsulfonyl)benzyl)-6-(4-fluorophenyl)-N^4-(1-(trifluoromethyl)cyclopropyl) pyrido[3,2-d]pyrimidine-2,4-diamine] | – | < 0.1 | > 10
3 | C[C@@H](Nc1nc(OC2(C)CC2)c2nc(C#CC3CC3)ccc2n1)c1ccc(S(N)(=O)=O)cc1 [Example 296, (R)-4-(1-(6-(2-cyclopropyl-ethynyl)-4-(1-methylcyclo-propoxy)pyrido[3,2-d]pyrimidin-2-ylamino)ethyl)benzene-sulfonamide] | – | < 0.1 | > 10
4 | NS(=O)(=O)c1cc(F)cc(CNc2nc(NC3(C(F)(F)F)CC3)c3nc(-c4ccc(F)nc4)ccc3n2)c1 [Example 77, 3-fluoro-5-((6-(6-fluoropyridin-3-yl)-4-(1-(trifluoromethyl)cyclopropylamino)pyrido[3,2-d]pyrimidin-2-ylamino)methyl) benzenesulfonamide] | – | < 0.1 | > 10
5 | C[C@H](Nc1nc(NCc2ccc(-n3cncn3)cc2)nc2ccc(-c3cccc(S(C)(=O)=O)c3)nc12)C(F)(F)F [Example 187, N^2-(4-(1H-1,2,4-triazol-1-yl)benzyl)-6-(3-(methylsulfonyl)phenyl)-N^4-((S)-1,1,1-trifluoropropan-2-yl)pyrido [3,2-d]pyrimidine-2,4-diamine] | – | < 0.1 | > 10
6 | Cc1ccc(-c2ccc3nc(NCc4ccc(S(N)(=O)=O)cc4)nc(NCC(F)(F)F)c3n2)cc1S(C)(=O)=O [Example 143, 4-((6-(4-methyl-3-(methylsulfonyl)phenyl)-4-(2,2,2-trifluoroethylamino)pyrido[3,2-d]pyrimidin-2-ylamino)methyl)benzene-sulfonamide] | – | < 0.1 | > 10
7 | NS(=O)(=O)c1ccc(CNc2nc(OC3CC3)c3nc(C#CC4CC4)ccc3n2)cc1 [Example 286, 4-((4-cyclopropoxy-6-(2-cyclopropylethynyl)pyrido [3,2-d]pyrimidin-2-ylamino)methyl)benzenesulfonamide] | – | 0.1 to 0.25 | > 10
8 | NS(=O)(=O)c1cc(Cl)cc(CNc2nc(NC3(C(F)(F)F)CC3)c3nc(-c4ccc(NC(=O)C5(C(F)(F)F)CC5)cc4)ccc3n2)c1 [Example 48, 3-chloro-5-((6-(4-(1-(trifluoromethyl)cyclopropyl-carboxamido)phenyl)-4-(1-(trifluoromethyl)cyclopropyl-amino)pyrido[3,2-d]pyrimidin-2-ylamino)methyl)benzene-sulfonamide] | – | < 0.1 | 1 to 10
9 | Cc1ccc(-c2ccc3nc(NCc4cccc(S(C)(=O)=O)c4)nc(NCC(F)(F)F)c3n2)cc1S(C)(=O)=O [Example 173, N^2-(3-(methylsulfonyl)benzyl)-6-(4-methyl-3-(methylsulfonyl)phenyl)-N^4-(2,2,2-trifluoroethyl) pyrido[3,2-d]pyrimidine-2,4-diamine] | – | < 0.1 | 1 to 10
10 | CS(=O)(=O)Nc1cncc(CNc2nc(NC3(C(F)(F)F)CC3)c3nc(-c4ccc(F)cc4)ccc3n2)c1 [Example 134, N-(5-((6-(4-fluorophenyl)-4-(1-(trifluoromethyl)cyclopropyl-amino)pyrido[3,2-d]pyrimidin-2-ylamino)methyl)pyridin-3-yl)methanesulfonamide] | – | 0.25 to 2 | > 10
11 | CCOc1ccc(-c2ccc3nc(NCc4ccc(-n5cncn5)cc4)nc(NCC(F)(F)F)c3n2)cc1S(N)(=O)=O [Example 243, 5-(2-(4-(1H-1,2,4-triazol-1-yl)benzylamino)-4-(2,2,2-trifluoroethylamino)pyrido [3,2-d]pyrimidin-6-yl)-2-ethoxybenzenesulfonamide] | – | < 0.1 | > 10
12 | NS(=O)(=O)c1cc(Cl)cc(CNc2nc(NC3(C(F)(F)F)CC3)c3nc(-c4ccc(N5CNCC5=O)cc4)ccc3n2)c1 [Example 45, 3-chloro-5-((6-(4-(5-oxoimidazolidin-1-yl)phenyl)-4-(1-(trifluoromethyl)cyclopropylamino)pyrido [3,2-d]pyrimidin-2-ylamino)methyl)benzenesulfonamide] | – | < 0.1 | 1 to 10
13 | CC[C@@H](Nc1nc(NCC(F)(F)F)c2nc(-c3ccc(OC)c(S(C)(=O)=O)c3)ccc2n1)c1ccc(S(N)(=O)=O)cc1 [Example 154, 4-((R)-1-(6-(4-methoxy-3-(methylsulfonyl)phenyl)-4-(2,2,2-trifluoroethylamino)pyrido[3,2-d]pyrimidin-2-ylamino)propyl)benzene-sulfonamide] | – | 0.1 to 0.25 | > 10
14 | CCOc1ccc(-c2ccc3nc(NCc4cccc(S(C)(=O)=O)c4)nc(NCC(F)(F)F)c3n2)cn1 [Example 230, N^2-(3-(methylsulfonyl)benzyl)-6-(6-ethoxypyridin-3-yl)-N^4-(2,2,2-trifluoroethyl)pyrido [3,2-d]pyrimidine-2,4-diamine] | – | < 0.1 | > 10
15 | NS(=O)(=O)c1cc(Cl)cc(CNc2nc(NC3(C(F)(F)F)CC3)c3nc(C#CC4CC4)ccc3n2)c1 [Example 91, 3-chloro-5-((6-(2-cyclopropylethynyl)-4-(1-(trifluoromethyl)cyclopropyl-amino)pyrido[3,2-d]pyrimidin-2-ylamino)methyl)benzene-sulfonamide] | – | < 0.1 | > 10
16 | CC(C)Oc1ccc(-c2ccc3nc(NCc4ccc(-n5cccn5)cc4)nc(NCC(F)(F)F)c3n2)cn1 [Example 242, N^2-(4-(1H-pyrazol-1-yl)benzyl)-6-(6-isopropoxypyridin-3-yl)-N^4-(2,2,2-trifluoroethyl)pyrido [3,2-d]pyrimidine-2,4-diamine] | – | < 0.1 | 1 to 10
17 | COc1ccc(-c2ccc3nc(NCc4ccc(S(N)(=O)=O)cc4)nc(NCC(F)(F)F)c3n2)cc1S(=O)(=O)C(F)(F)F [Example 165, 4-((6-(4-methoxy-3-(trifluoromethylsulfonyl)phenyl)-4-(2,2,2-trifluoroethylamino)pyrido[3,2-d]pyrimidin-2-ylamino)methyl)benzene-sulfonamide] | – | < 0.1 | 1 to 10
18 | NS(=O)(=O)c1ccc(CNc2nc(NC3(C(F)(F)F)CC3)c3nc(-c4cccc(C(F)(F)F)c4)ccc3n2)cc1 [Example 80, 4-((4-(1-(trifluoromethyl)cyclopropylamino)-6-(3-(trifluoromethyl)phenyl)pyrido [3,2-d]pyrimidin-2-ylamino)methyl)benzenesulfonamide] | – | 0.25 to 2 | 1 to 10
19 | COc1ccc(-c2ccc3nc(NCc4cccc(S(N)(=O)=O)c4)nc(NCC(F)(F)F)c3n2)cc1S(C)(=O)=O [Example 144, 3-((6-(4-methoxy-3-(methylsulfonyl)phenyl)-4-(2,2,2-trifluoroethylamino)pyrido[3,2-d]pyrimidin-2-ylamino)methyl)benzene-sulfonamide] | – | < 0.1 | 1 to 10
20 | COc1ccc(-c2ccc3nc(NCc4cc(C(F)(F)F)cc(S(N)(=O)=O)c4)nc(NCC(F)(F)F)c3n2)cc1S(C)(=O)=O [Example 141, 3-((6-(4-methoxy-3-(methylsulfonyl)phenyl)-4-(2,2,2-trifluoroethylamino)pyrido[3,2-d]pyrimidin-2-ylamino)methyl)-5-(trifluoromethyl)benzene-sulfonamide] | – | < 0.1 | > 10
21 | CC#Cc1ccc2nc(N[C@H](C)c3ccc(S(N)(=O)=O)cc3)nc(OC3(C)CC3)c2n1 [Example 302, (R)-4-(1-(4-(1-methylcyclo-propoxy)-6-(prop-1-ynyl)pyrido[3,2-d]pyrimidin-2-ylamino)ethyl)benzene-sulfonamide] | – | < 0.1 | > 10
22 | CCOc1ccc(-c2ccc3nc(N[C@H](C)Cn4cncn4)nc(NCC(F)(F)F)c3n2)cn1 [Example 232, N^2-((R)-1-(1H-1,2,4-triazol-1-yl)propan-2-yl)-6-(6-ethoxypyridin-3-yl)-N^4-(2,2,2-trifluoroethyl)pyrido[3,2-d] pyrimidine-2,4-diamine] | – | < 0.1 | 1 to 10
23 | NS(=O)(=O)c1cc(Cl)cc(CNc2nc(NC3(C(F)(F)F)CC3)c3nc(-c4ccc(F)nc4)ccc3n2)c1 [Example 90, 3-chloro-5-((6-(6-fluoropyridin-3-yl)-4-(1-(trifluoromethyl)cyclopropyl-amino)pyrido[3,2-d]pyrimidin-2-ylamino)methyl)benzene-sulfonamide] | – | < 0.1 | > 10
